Where only a bound is given, the exact number is not on record here.

Data on 19 molecules can be found in US20240254103A9, “NOVEL PYRIMIDINE DERIVATIVE, AND COMPOSITION FOR PREVENTING OR TREATING NEURODEGENERATIVE DISEASES AND CANCER, COMPRISING SAME” (WHAN IN PHARMACEUTICAL CO., LTD., priority 2020, published 2024).

The target of the assay is T1, wild-type LRRK2 (Homo sapiens, UniProt Q5S007).
T1 construct: DNA tag for qPCR detection (not a peptide; the protein part that carries it is not described); made in house; host or cells: HEK 293 cells (the same paragraph also describes T7 phage grown in E. coli BL21)
Nature of the assay: Inhibitory activity against LRRK2: competition binding to ligand-affinity beads, DNA-tagged kinase quantitated by qPCR. Conditions: % of ctrl; for remaining binding at 0.01 µM: 10 nM compound, read-out: LRRK2(WT) Remaining kinase activity(%) at 10 nM; for remaining binding at 0.05 µM: 50 nM compound, read-out: LRRK2(WT) Remaining kinase activity(%) at 50 nM. How it is done:
Representative compounds synthesized in Example 1 were assayed for inhibitory activity against wild-type LRRK2 and mutant LRRK2 (G2019S), and the results are summarized in Tables 2 and 3. In brief, a T7 phase strain carrying the wild-type kinase consisting of amino acid residues from H970 to E2527 of human-derived LRRK2 (Accession no. NP_940980.3) or a T7 phase strain carrying the G2019S mutation kinase was infected into E. coli strain BL21 which was then grown until log phase. After infection with T7 phases (multiplicity of infection=0.4), the cells were cultured at 32° C. for 90-150 minutes while shaking. Then, E. coli lysates were centrifuged (6,000×g) and the supernatant was filtered through a 0.2-μm filter. The kinases were produced in HEK 293 cells. In this regard, DNA was tagged to obtain DNA-tagged kinases for qPCR detection. For use in analyzing the kinases, affinity resins were prepared by treating streptavidin-coated magnetic beads with biotinylated small molecule ligands at room temperature for 30 minutes. Then, the liganded beads were blocked with an excess of biotin and washed with a blocking buffer (SeaBlock (Pierce), 1% BSA, 0.05% Tween 20, 1 mM DTT) to remove unbound ligands and thus to reduce the binding of non-specific phages. […] After one hour of incubation, the affinity beads were washed with a wash buffer (1×PBS, 0.05% Tween 20), resuspended in an elution buffer (1×PBS, 0.05% Tween 20, 0.5 μM non-biotinylated affinity ligand), and incubated at room temperature for 30 minutes while shaking. Afterwards, concentrations of wild-type LRRK2 and mutant LRRK2 (G2019S) in the eluted samples were quantitated by qPCR. Activity values are expressed as percentages relative to the control (% of ctrl). The compounds used in the activity assay were prepared into 40× stocks in 100% DMSO. The stocks were directly diluted during analysis procedures.
Table 2 includes inhibitory activities of the representative compounds of the present disclosure at 100 nM against wild-type LRRK2 and mutant LRRK2 (G2019S) while Table 3 includes inhibitory activities of the representative compounds at 10 nM and 50 nM against wild-type LRRK2. (+++ less than 10%; ++ less than 30%; + less than 50%; −50% or higher)
(Real-time PCR tracks product formation cycle by cycle.)

T1 sequence (Q5S007 970-2527): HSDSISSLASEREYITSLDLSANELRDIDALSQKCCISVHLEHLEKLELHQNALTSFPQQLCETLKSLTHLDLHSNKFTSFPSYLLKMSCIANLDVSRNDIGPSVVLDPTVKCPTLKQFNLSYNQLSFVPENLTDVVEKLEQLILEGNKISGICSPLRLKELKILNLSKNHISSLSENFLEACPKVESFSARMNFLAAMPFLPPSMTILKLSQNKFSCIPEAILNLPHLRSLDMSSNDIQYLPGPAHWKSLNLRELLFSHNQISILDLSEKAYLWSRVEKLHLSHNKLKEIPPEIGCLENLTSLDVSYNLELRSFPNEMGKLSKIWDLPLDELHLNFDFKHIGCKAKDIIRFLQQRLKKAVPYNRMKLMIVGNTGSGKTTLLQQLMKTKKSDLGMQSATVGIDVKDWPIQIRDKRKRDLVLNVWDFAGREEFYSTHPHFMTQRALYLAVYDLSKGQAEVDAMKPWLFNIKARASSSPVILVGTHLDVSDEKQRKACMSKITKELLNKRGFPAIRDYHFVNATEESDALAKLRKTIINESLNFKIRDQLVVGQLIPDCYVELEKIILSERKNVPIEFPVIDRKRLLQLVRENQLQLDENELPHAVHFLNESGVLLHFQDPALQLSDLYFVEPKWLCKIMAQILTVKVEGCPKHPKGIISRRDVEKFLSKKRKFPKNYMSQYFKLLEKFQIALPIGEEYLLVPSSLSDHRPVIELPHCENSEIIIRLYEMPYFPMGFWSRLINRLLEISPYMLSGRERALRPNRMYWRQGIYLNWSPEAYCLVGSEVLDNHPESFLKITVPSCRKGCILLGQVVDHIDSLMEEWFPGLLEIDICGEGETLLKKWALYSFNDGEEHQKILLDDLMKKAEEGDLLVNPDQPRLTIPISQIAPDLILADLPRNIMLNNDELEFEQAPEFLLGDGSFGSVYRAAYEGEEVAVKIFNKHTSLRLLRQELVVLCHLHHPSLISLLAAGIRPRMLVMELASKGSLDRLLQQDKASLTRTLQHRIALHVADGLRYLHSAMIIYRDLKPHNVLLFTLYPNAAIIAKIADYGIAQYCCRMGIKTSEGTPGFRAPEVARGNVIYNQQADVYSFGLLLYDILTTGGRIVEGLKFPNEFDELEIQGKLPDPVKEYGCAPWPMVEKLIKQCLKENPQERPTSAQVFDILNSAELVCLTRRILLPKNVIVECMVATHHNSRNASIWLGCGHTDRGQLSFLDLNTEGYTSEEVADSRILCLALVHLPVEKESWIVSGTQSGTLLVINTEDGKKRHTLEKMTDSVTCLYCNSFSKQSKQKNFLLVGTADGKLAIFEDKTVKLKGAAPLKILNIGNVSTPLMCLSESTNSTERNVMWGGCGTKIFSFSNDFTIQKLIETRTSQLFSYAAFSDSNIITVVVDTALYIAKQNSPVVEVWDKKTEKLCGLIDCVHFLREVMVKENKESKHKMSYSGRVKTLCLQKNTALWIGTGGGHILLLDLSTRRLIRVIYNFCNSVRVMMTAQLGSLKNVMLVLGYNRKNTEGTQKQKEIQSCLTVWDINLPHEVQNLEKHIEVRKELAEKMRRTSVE

As for `COc1cc(C(=O)NC2CCC(O)CC2)ccc1Nc1ncc(Cl)c(-c2cnn(C(C)C)c2)n1` (centres unmarked) [Compound 91, 4-((5-chloro-4-(1-isopropyl-1H-pyrazol-4-yl)pyrimidin-2-yl)amino)-N-((1r,4r)-4-hydroxycyclohexyl)-3-methoxybenzamide], the remaining binding at 0.01 µM is at least 50% and the remaining binding at 0.05 µM is under 30%.
In the same order, the values of `COC(=O)[C@@H]1CCCN1C(=O)c1ccc(Nc2ncc(Cl)c(-c3cnn(C(C)C)c3)n2)c(OC)c1` [Compound 200, methyl (4-((5-chloro-4-(1-isopropyl-1H-pyrazol-4-yl)pyrimidin-2-yl)amino)-3-methoxybenzoyl)-L-prolinate] are at least 50% and under 50%.
For `COc1ccccc1CNC(=O)c1ccc(Nc2ncc(Cl)c(-c3cnn(C(C)C)c3)n2)c(OC)c1` [Compound 154, 4-((5-chloro-4-(1-isopropyl-1H-pyrazol-4-yl)pyrimidin-2-yl)amino)-3-methoxy-N-(2-methoxybenzyl)benzamide], in that order: at least 50% and under 30%.
As for `COc1cc(C(=O)NCc2ccc(Cl)nc2)ccc1Nc1ncc(Cl)c(-c2cnn(C(C)C)c2)n1` [Compound 168, 4-((5-chloro-4-(1-isopropyl-1H-pyrazol-4-yl)pyrimidin-2-yl)amino)-N-((6-chloropyridin-3-yl)methyl)-3-methoxybenzamide], the remaining binding at 0.01 µM is at least 50% and the remaining binding at 0.05 µM was under 50%.
`COc1cc(C(=O)N2CCN(C(C)=O)CC2)ccc1Nc1ncc(Cl)c(-c2cnn(C(C)C)c2)n1` [Compound 78, 1-(4-(4-((5-chloro-4-(1-isopropyl-1H-pyrazol-4-yl)pyrimidin-2-yl)amino)-3-methoxybenzoyl)piperazin-1-yl)ethan-1-one]: the remaining binding at 0.01 µM is under 50% and the remaining binding at 0.05 µM is under 10%.
Regarding `COc1cc(C(=O)NCc2ccc(C#N)cc2)ccc1Nc1ncc(Cl)c(-c2cnn(C(C)C)c2)n1` [Compound 128, 4-((5-chloro-4-(1-isopropyl-1H-pyrazol-4-yl)pyrimidin-2-yl)amino)-N-(4-cyanobenzyl)-3-methoxybenzamide], the remaining binding at 0.01 µM is at least 50% and the remaining binding at 0.05 µM is under 50%.
For `COc1cc(C(=O)N2CCS(=O)(=O)CC2)ccc1Nc1ncc(Cl)c(-c2cnn(C(C)C)c2)n1` [Compound 84, (4-((5-chloro-4-(1-isopropyl-1H-pyrazol-4-yl)pyrimidin-2-yl)amino)-3-methoxyphenyl)(1,1-dioxidothiomorpholino)methanone], in that order: under 50% and under 30%.
For `COc1cc(C(=O)N2CCC(S(C)(=O)=O)CC2)ccc1Nc1ncc(Cl)c(-c2cnn(C(C)C)c2)n1` [Compound 79, (4-((5-chloro-4-(1-isopropyl-1H-pyrazol-4-yl)pyrimidin-2-yl)amino)-3-methoxyphenyl)(4-(methylsulfonyl)piperidin-1-yl)methanone], in that order: under 50% and under 10%.
In the case of `COc1cc(C(=O)NCc2ccc(S(N)(=O)=O)cc2)ccc1Nc1ncc(Cl)c(-c2cnn(C(C)C)c2)n1` [Compound 189, 4-((5-chloro-4-(1-isopropyl-1H-pyrazol-4-yl)pyrimidin-2-yl)amino)-3-methoxy-N-(4-sulfamoylbenzyl)benzamide], the remaining binding at 0.01 µM was at least 50% and the remaining binding at 0.05 µM was under 50%.
For the molecule `COc1cc(C(=O)NN2C(C)CCCC2C)ccc1Nc1ncc(Cl)c(-c2cnn(C(C)C)c2)n1` (centres unmarked) [Compound 167, 4-((5-chloro-4-(1-isopropyl-1H-pyrazol-4-yl)pyrimidin-2-yl)amino)-N-(2,6-dimethylpiperidin-1-yl)-3-methoxybenzamide], the remaining binding at 0.01 µM was at least 50% and the remaining binding at 0.05 µM is under 30%.
As for `CCOC(=O)CCNC(=O)c1ccc(Nc2ncc(Cl)c(-c3cnn(C(C)C)c3)n2)c(OC)c1` [Compound 176, ethyl 3-(4-((5-chloro-4-(1-isopropyl-1H-pyrazol-4-yl)pyrimidin-2-yl)amino)-3-methoxybenzamido)propanoate], the remaining binding at 0.01 µM was at least 50% and the remaining binding at 0.05 µM was under 50%.
In the same order, the values of `COc1cc(C(=O)NC2CCN(C(C)C)CC2)ccc1Nc1ncc(Cl)c(-c2cnn(C(C)C)c2)n1` [Compound 99, 4-((5-chloro-4-(1-isopropyl-1H-pyrazol-4-yl)pyrimidin-2-yl)amino)-N-(1-isopropylpiperidin-4-yl)-3-methoxybenzamide] are under 50% and under 30%.
In the case of `CCN(C)C1CCN(C(=O)c2ccc(Nc3ncc(Cl)c(-c4cnn(C(C)C)c4)n3)c(OC)c2)CC1` [Compound 210, (4-((5-chloro-4-(1-isopropyl-1H-pyrazol-4-yl)pyrimidin-2-yl)amino)-3-methoxyphenyl)(4-(ethyl(methyl)amino)piperidin-1-yl)methanone], the remaining binding at 0.01 µM was under 50% and the remaining binding at 0.05 µM was under 10%.
Take `COc1cc(C(=O)NC2CCN(C)CC2)ccc1Nc1ncc(Cl)c(-c2cnn(C(C)C)c2)n1` [Compound 60, 4-((5-chloro-4-(1-isopropyl-1H-pyrazol-4-yl)pyrimidin-2-yl)amino)-3-methoxy-N-(1-methylpiperidin-4-yl)benzamide]: the remaining binding at 0.01 µM was under 50% and the remaining binding at 0.05 µM is under 10%.
Regarding `CCN(C)C(=O)c1ccc(Nc2ncc(Cl)c(-c3cnn(C(C)C)c3)n2)c(OC)c1` [Compound 202, 4-((5-chloro-4-(1-isopropyl-1H-pyrazol-4-yl)pyrimidin-2-yl)amino)-N-ethyl-3-methoxy-N-methylbenzamide], the remaining binding at 0.01 µM was at least 50% and the remaining binding at 0.05 µM is under 50%.
For `COc1cc(C(=O)N2CC(N3CCOCC3)C2)ccc1Nc1ncc(Cl)c(-c2cnn(C(C)C)c2)n1` [Compound 73, (4-((5-chloro-4-(1-isopropyl-1H-pyrazol-4-yl)pyrimidin-2-yl)amino)-3-methoxyphenyl)(3-morpholinoazetidin-1-yl)methanone], in that order: under 50% and under 30%.
In the same order, the values of `COc1cc(C(=O)Nc2cc(C)c(OC)c(C)c2)ccc1Nc1ncc(Cl)c(-c2cnn(C(C)C)c2)n1` [Compound 204, 4-((5-chloro-4-(1-isopropyl-1H-pyrazol-4-yl)pyrimidin-2-yl)amino)-3-methoxy-N-(4-methoxy-3,5-dimethylphenyl)benzamide] are at least 50% and under 50%.
`COc1cc(C(=O)NC2Cc3ccccc3C2)ccc1Nc1ncc(Cl)c(-c2cnn(C(C)C)c2)n1` [Compound 129, 4-((5-chloro-4-(1-isopropyl-1H-pyrazol-4-yl)pyrimidin-2-yl)amino)-N-(2,3-dihydro-1H-inden-2-yl)-3-methoxybenzamide]: the remaining binding at 0.01 µM is at least 50% and the remaining binding at 0.05 µM was under 50%.
For `CCC(NC(=O)c1ccc(Nc2ncc(Cl)c(-c3cnn(C(C)C)c3)n2)c(OC)c1)c1ccccc1` (centres unmarked) [Compound 182, 4-((5-chloro-4-(1-isopropyl-1H-pyrazol-4-yl)pyrimidin-2-yl)amino)-3-methoxy-N-(1-phenylpropyl)benzamide], in that order: at least 50% and under 50%.
